Results on ten molecules are retold here after patent US9090701B2, “Methods of detecting oxidized calcium/calmodulin dependent protein kinase II” (University of Iowa Research Foundation, priority 2008, dated 2015).

Assay [1] concerns the target T1, CaMKIIδ (Mus musculus, UniProt Q6PHZ2, M281V).
T1 construct: CaMKIIδ (GenBank #NP_001020609) was generated using the Bac-to-Bac baculovirus system; made in house; host or cells: Bac-to-Bac baculovirus system (Invitrogen)
It counts as biochemical. The conditions noted are these: single point mutation, H2O2. The method, then:
(§1) Mutant CaMKII cDNAs were generated using a QuikChange site-directed mutagenesis kit (Stratagene). CaMKIIδ (GenBank #NP_001020609) was generated using the Bac-to-Bac baculovirus system (Invitrogen) and purified on a calmodulin-agarose column. For CaMKII activity assays, purified CaMKII was pretreated with 200 μM CaCl2 and 1 μM CaM on ice for 1 minute. The protein was then exposed to ATP, H2O2, or water at the described concentrations for 10 minutes. Samples exposed to ATP or H2O2 were then treated with 10 mM EGTA for 10 minutes. CaMKII activity was measured as a function of ^32P-ATP incorporation into a synthetic substrate (syntide-2) at 30° C., as previously described (Wu e.g., 2002).
(§2) CaMKII is activated by Ca^2+/CaM, but autophosphorylation at T287 sustains catalytic activity after dissociation of Ca^2+/CaM (FIG. 1A) because the negatively charged phosphate prevents reassociation of the catalytic domain and autoinhibitory region (Hudmon and Schulman, 2002). CaMKII activity may also be enhanced by pro-oxidant conditions (Zhu e.g., 2007); it therefore was hypothesized that oxidation of the regulatory domain in the vicinity of T287 could sustain CaMKII catalytic activity by an analogous mechanism.
(§3) These mutants were exposed to H2O2 and assayed for activity in the presence of EGTA (FIG. 1C). […] While the paired methionine motif is conserved in the β, γ, and δ isoforms of CaMKII, the neuronal α isoform substitutes a cysteine residue for the first methionine of the pair (position 280 in CaMKIIα). The side chain of cysteine is also susceptible to oxidation. A M281C mutant of CaMKIIδ was generated to mimic the substitution in CaMKIIα. Additionally, CaMKIIα was generated and purified. […] To further elucidate the role of M281 and M282 in ROS-dependent activation, these sites were individually mutated. […]

In assay [2] the target is T2, CaMKIIδ (Mus musculus, UniProt Q6PHZ2). The format is biochemical. As for the experimental part: as §1, §2, §3
The target in assay [3] is T2, CaMKIIδ. The note with it: after Ca2+/CaM binding. As for the experimental part: It seemed possible that conditions capable of oxidizing methionine residues would also oxidize unprotected cysteine residues. […] In order to comprehensively test the potential role of all accessible cysteines in contributing to oxidation-dependent CaMKII activity, CaMKII activity responses to H2O2 in the presence of iodoacetic acid were measured. Iodoacetic acid is a reagent that blocks oxidation of unprotected cysteine residues (Zangerle e.g., 1992).

Assay [4] has as its system CaMKIIδ. The format is biochemical. The note with it: for H2O2 (oxidation/ROS)-dependent activation of CaMKII mutant: exposed to H2O2, assayed in the presence of EGTA. As for the experimental part:
as §1, §2, §3

The test system of a further assay is rat CaMKIIδ. Briefly: CaMKIIδ shRNA knockdown and rescue in cultured neonatal cardiomyocytes. It counts as cell-based. The conditions noted are these: shRNA-treated cells; for Rescue of apoptotic response to AngII: 24 hours. As for the experimental part:
(§4) Myocyte isolations from neonatal mouse or rat pups were modified from previously described methods (Mohler e.g., 2007). To generate the primary cardiomyocyte cultures, hearts were dissected from P1 animals and placed in 1 mL of Ham's F-10. Atrial tissue was removed and the ventricular chambers were rinsed to remove any remaining blood. Hearts were transferred into 1.5 mL of 0.05% Trypsin, 200 μM EDTA in Ham's F-10 medium (Mediatech). Hearts were minced into approximately 20 small pieces using forceps and small scissors and incubated in the Trypsin/EDTA medium at 37° C. Following 15 min, the heart pieces were mixed by a Pasteur pipette and incubated for an additional 15 min. A mixture of 200 μL of soybean trypsin inhibitor (2 mg/mL; Worthington) and 200 μL of collagenase (0.2 mg/mL; 1980 units/mg; Sigma) was incubated with the cells for 35-50 min at 37° C. The cell suspension was pelleted, resuspended in “Complete Medium” (40% DMEM, 40% Ham's F-10, 20% FCS), and plated on plastic dishes. Following five hours, the non-adhered cells (cardiomyocytes) were aspirated from the plate, pelleted, resuspended in Complete Medium, and plated on Mattek tissue culture plates (fibronectin-coated; Roche). Cardiomyocytes were washed with Ham's F-10 and Medium was replaced with “Defined Medium” to prevent the growth of fibroblasts. 100× Defined Medium consists of 100 μg/mL insulin, 500 μg/mL transferrin, 100 nM LiCl, 100 nM NaSeO4, and 10 nM thyroxine. To ensure that pure populations of cardiomyocytes were obtained, cultures were immunolabeled with alpha-actinin Ig (cardiomyocyte-specific marker). Only cultures with >90% cardiomyocytes were used in experiments. (See FIG. 12.) Lentiviral treatments (shRNA, rescue constructs) and apoptosis inducing agents (Iso, AngII) were used for 24 hours. Cells were fixed in 4% paraformaldehyde, permeabilized in 0.1% Triton X-100 and sodium citrate, and stained using In Situ cell death detection kits, TMR Red (Roche). TUNEL stain assays were interpreted as previously described (Yang e.g., 2006). Nuclei were co-stained with DAPI. Investigators were blinded to the genetic identity and treatment of the mice in all studies.
The CaMKIIδ-specific shRNA target sequence was selected based on the algorithm of Chalk, Wahlestedt, and Sonnhammer and others (Hammond e.g., 2000; Bernstein e.g., 2001; Brummelkamp e.g., 2002). […] Sense and anti-sense sequences were created and ligated into a modified pFIV lentiviral vector (SBI). For rescue experiments, full-length rat CaMKIIδ was cloned into pCDH1-MCS1-EF1-copOFP (SBI) and completely sequenced. The resulting construct was then modified to be shRNA resistant by engineering conserved residue wobble base changes at four positions in the template (CTG[A]-GCT[C]-ACG[A]-AGA[G] (SEQ ID NO:7))→LATR to LATR. […]

Assay [5] concerns the target T3, CaMKIIδ (Mus musculus, UniProt Q6PHZ2, T287A).
T3 construct: CaMKIIδ (GenBank #NP_001020609) was generated using the Bac-to-Bac baculovirus system; made in house; host or cells: Bac-to-Bac baculovirus system (Invitrogen)
The format is biochemical. The note with it: in the presence of ATP. As for the experimental part: as §1, §2, §3

The next assay concerns oxCaMKII. Briefly: Western blot of blood samples for oxidized CaMKII. The note with it: mice with cancer, N=1 per group. The format is in vivo, mice. From the text: In order to test whether the anti-oxCaMKII antiserum was suitable for detecting increased CaMKII oxidation in blood under disease conditions associated with enhanced oxidative stress, validated mouse models were utilized. […] (See FIG. 15). Western blot of blood samples and ImageJ analysis were used to quantify total and oxidized CaMKII. (See FIG. 15). […] Mice were exposed to cancer cells and treated with either saline or 2DG. Those mice that tailed to develop tumors after 60 days were labeled as controls. (See FIG. 16). Western blot of blood samples and ImageJ analysis were used to quantify total and oxidized CaMKII. (See FIG. 16). […] (See FIG. 16). Mice were divided into four groups based on the presence or absence of cancer and whether or not they received treatment. Western blot of blood samples and ImageJ analysis were used to quantify total and oxidized CaMKII. (See FIG. 18). Both cancer and varied treatments increase blood oxCaMKII in an additive manner.
Background: A western blot detects proteins with antibodies after separation by electrophoresis.

A further assay concerns the target CaMKIIα (Homo sapiens, UniProt Q9UQM7). The method, then: as §1
These mutants were exposed to H2O2 and assayed for activity in the presence of EGTA (FIG. 1C). […] While the paired methionine motif is conserved in the β, γ, and δ isoforms of CaMKII, the neuronal α isoform substitutes a cysteine residue for the first methionine of the pair (position 280 in CaMKIIα). The side chain of cysteine is also susceptible to oxidation. A M281C mutant of CaMKIIδ was generated to mimic the substitution in CaMKIIα. Additionally, CaMKIIα was generated and purified. […] To further elucidate the role of M281 and M282 in ROS-dependent activation, these sites were individually mutated.

A further assay has as its system cardiomyocytes. Briefly: Isolated cardiomyocyte TUNEL staining. It counts as cell-based, mouse. The method, then:
as §4
Cardiomyocytes from mice that express an inhibitory peptide against CaMKII (AC3-I, Zhang e.g., 2005) were treated with 100 nM AngII for 24 hours in parallel with isolated cardiomyocytes from WT and p47^−/− mice. […] Activity assays for caspase-3, a downstream target enzyme in the CaMKII apoptotic signaling pathway in heart, recapitulated the results from the TUNEL assay (FIG. 7A).

Another assay addresses Ca^2+/CaM/CaMKII complex (Mus musculus, UniProt Q6PHZ2). The format is binding.

T2 sequence (Q6PHZ2 2-499): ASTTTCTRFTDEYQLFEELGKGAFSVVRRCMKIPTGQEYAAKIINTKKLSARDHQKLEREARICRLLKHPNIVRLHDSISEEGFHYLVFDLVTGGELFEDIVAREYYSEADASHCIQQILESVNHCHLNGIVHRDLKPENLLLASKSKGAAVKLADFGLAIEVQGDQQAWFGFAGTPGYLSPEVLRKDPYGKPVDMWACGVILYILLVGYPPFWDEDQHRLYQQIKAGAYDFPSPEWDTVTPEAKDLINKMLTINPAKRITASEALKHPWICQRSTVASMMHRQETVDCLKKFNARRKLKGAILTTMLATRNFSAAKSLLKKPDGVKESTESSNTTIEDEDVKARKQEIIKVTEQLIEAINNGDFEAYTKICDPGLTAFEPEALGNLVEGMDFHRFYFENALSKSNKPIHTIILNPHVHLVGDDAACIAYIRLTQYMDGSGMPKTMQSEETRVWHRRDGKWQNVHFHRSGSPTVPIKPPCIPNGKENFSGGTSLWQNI
CaMKIIα, sequence (Q9UQM7 whole entry, canonical isoform): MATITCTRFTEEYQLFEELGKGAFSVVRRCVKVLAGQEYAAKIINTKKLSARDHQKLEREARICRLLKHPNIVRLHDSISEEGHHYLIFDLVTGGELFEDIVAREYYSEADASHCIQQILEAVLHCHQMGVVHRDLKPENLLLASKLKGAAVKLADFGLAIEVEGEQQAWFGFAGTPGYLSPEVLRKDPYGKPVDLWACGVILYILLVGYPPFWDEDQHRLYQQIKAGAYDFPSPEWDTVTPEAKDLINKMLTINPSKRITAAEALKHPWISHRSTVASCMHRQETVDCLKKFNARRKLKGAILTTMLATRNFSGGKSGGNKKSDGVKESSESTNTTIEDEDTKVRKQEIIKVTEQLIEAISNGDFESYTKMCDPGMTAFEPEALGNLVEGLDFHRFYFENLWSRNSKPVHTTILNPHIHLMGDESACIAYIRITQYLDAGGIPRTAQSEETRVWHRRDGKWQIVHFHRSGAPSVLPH
T1 sequence (Q6PHZ2 2-499 M281V): as the sequence (Q6PHZ2 2-499) above, with M280V counted along it
T3 sequence (Q6PHZ2 2-499 T287A): as the sequence (Q6PHZ2 2-499) above, with T286A counted along it
Method for Ca^2+/CaM/CaMKII complex: Spectra were collected at 30° C. using a Fluorolog 3 (Jobin Yvon, Horiba) spectrofluorometer. For intrinsic fluorescence shift experiments, excitation wavelength was 270 nm. Emission spectra were generated at Iran increments from 280 nm to 400 nm. Background traces were subtracted from CaMKII spectra to eliminate the contribution from intrinsic fluorescence of CaM. For fluorescence anisotropy experiments, baseline traces of 100 nM dansylated CaM in 15 mM HEPES buffer, pH 7.2 were measured at baseline and after the addition of 200 μM CaCl2 at 60 s. At 180 s, 100 nM purified CaMKII was added to the CaM solution. For some trials, CaMKII became phosphorylated by the addition of 10 mM ATP. 100 μM H2O2 or an equivalent volume of buffer was added at 250 s. Finally, addition of 10 mM EGTA at 300 s was used to remove free calcium from the solution, uncoupling CaM/CaMKII binding.

Regarding M281V: CaMKII single point mutant M281V, the “Reduction of oxidation-dependent activation” value with CaMKIIδ [1] amounted to 65%.

Consider `O=C(O)CI` [iodoacetic acid], for which the “H2O2 activity responses of cysteine protected CaMKIIδ” value at CaMKIIδ [2] (pretreated with 10 mM iodoacetic acid, vs CaMKIIδ without) is listed as “equivalent H2O2 activity responses”. Further, on CaMKIIδ [3], the “Accessibility of cysteine residues to biochemical modification” value was “blocked the accessibility of cysteine residues”.

With M281/282V, the “H2O2 (oxidation/ROS)-dependent activation of CaMKII mutant” value in the assay with CaMKIIδ [4] is given as “completely abolished”. In addition, in the assay with rat CaMKIIδ, the “Rescue of apoptotic response to Iso” value is listed as “rescued the apoptotic response to Iso” and the “Rescue of apoptotic response to AngII” value is on record as “failed to rescue the apoptotic response to AngII”.

Take “C290V: CaMKII mutant of the regulatory domain cysteine”: in the assay on CaMKIIδ [4], the “Ca2+/CaM-dependent activation” value is “indistinguishable from WT CaMKII” and the “H2O2 (oxidation/ROS)-dependent activation of CaMKII mutant” value is listed as “indistinguishable from WT CaMKII”.

On to “T287A: CaMKII bearing a T287A substitution”, for which, in the assay with CaMKIIδ [4], the “Ca2+/CaM-dependent activation” value is “normal Ca^2+/CaM-dependent activation” and the “H2O2 (oxidation/ROS)-dependent activation of CaMKII mutant” value is “activated by H2O2”. The “Autophosphorylation (ATP)-dependent Ca2+-independent activity” value with CaMKIIδ [5] is “did not maintain persistent Ca^2+-independent activity”.

On to `O=CC[C@@H](O)[C@H](O)[C@H](O)CO` [2-deoxyglucose], for which the “Oxidized CaMKII in blood” value with oxCaMKII is listed as “markedly increased oxidized CaMKII”.

“M281C: M281C mutant of CaMKIIδ generated to mimic the substitution in CaMKIIα”: the “H2O2 (oxidation/ROS)-dependent activation of CaMKII mutant” value in the assay with CaMKIIδ [4] is recorded as “activated by H2O2”.

Take “WT CaMKII: shRNA-resistant wild type rat CaMKIIδ rescue construct expressed by lentivirus”: in the assay with rat CaMKIIδ, the “Rescue of apoptotic response to Iso” value is “fully rescued” and the “Rescue of apoptotic response to AngII” value was “fully rescued”.

As to `OO` [H2O2, hydrogen peroxide], the “Activation of purified CaMKIIα by H2O2” value on CaMKIIα is “activated”. In the assay with cardiomyocytes (AC3-I cells compared to WT or p47−/− cells), the Apoptotic effect result is reported as “blunted by more than half”. Also, in the assay with cardiomyocytes (p47−/− cells), the Apoptosis entry is given as “caused significant apoptosis”. The “Dose dependence of activation of wild type CaMKII by H2O2” value at CaMKIIδ [2] (WT CaMKII) is given as “close-dependent”. The “CaMKII activation by H2O2” value at CaMKIIδ [2] (after pretreatment with Ca2+/CaM, in the presence of EGTA) is given as “persistent CaMKII activation”. Also, the “CaMKII activity after exposure to H2O2” value on CaMKIIδ [2] (purified CaMKII, absence of any pre-treatment) is recorded as “no discernable CaMKII activity”. In addition, the CaM trapping result at Ca^2+/CaM/CaMKII complex (CaMKII exposure to H2O2 for 10 min) was “failed to induce CaM trapping”. In addition, on Ca^2+/CaM/CaMKII complex (pretreatment with H2O2 prior to EGTA), the “Dissociation kinetics of Ca2+/CaM from autophosphorylated CaMKII” value is given as “no significant effect”.

For the molecule M282V: CaMKII single point mutant M282V, the “H2O2 (oxidation/ROS)-dependent activation of CaMKII mutant” value with CaMKIIδ [4] is listed as “completely ablated”.
